What was measured:
[1] = test system: orthotopic, syngeneic tumor; experiment: Efficacy of Brush prodrugs in orthotopic, syngeneic tumor (tumor volume, tumor weight, body weight); type: in vivo
Experimental: In FIGS. 5D to 5F, “iBET” refers to OTX-015.
Tumor volumes are calculated after measuring length and width using digital calipers. Tumors were also weighted, and the body weight was measured.

[2] = clinical; cited from earlier work

Cc1sc2c(c1C)C(c1ccc(Cl)cc1)=N[C@@H](CC(=O)Nc1ccc(O)cc1)c1nnc(C)n1-2 [OTX-015]
body weight loss ([1]; tolerated dose 100 mpk BID, PO (FIG. 5C)): minor weight loss | body weight loss ([1]; tolerated doses 5 mpk and 10 mpk (FIG. 5F)): minor weight loss | dose-limiting toxicity: anemia [2]: 91% | dose-limiting toxicity: neutropenia [2]: 51% | dose-limiting toxicity: thrombocytopenia [2]: 96%

Source: patent US12414997B2, “Brush prodrugs and uses thereof” (Massachusetts Institute of Technology, priority 2018, dated 2025)
